Columns and labels:
[1] = Stability in cryopreserved hepatocytes, rat
[2] = Stability in cryopreserved hepatocytes, dog
[3] = molecular target: prostaglandin I2 (PGI2) receptor (IP) (Homo sapiens, UniProt P43119); assay: IP receptor cAMP agonist assay (CHO-K1 cells); format: cell-based; conditions: summary of findings
Description: Cyclic AMP assay kit: Multiscreen™ TR-FRET cAMP 1.0 No Wash Assay Kit (Multispan, Inc.)
Cells were thawed from frozen cells and resuspended in assay buffer at desired concentrations. cAMP or Calcium assays were performed according to the manufacturer's protocol using Multiscreen™ TR-FRET cAMP 1.0 No Wash Assay Kit or Multiscreen™ Calcium 1.0 No Wash Kit.
Gas Cyclic AMP (cAMP) Assay: In agonist mode testing, cells were seeded in a 384-well plate at an appropriate density and then were treated with compounds and incubated at 37° C. for 20 minutes. The reaction was terminated by […] trFluor™ Eu-labeled cAMP and trFluor™ 650-labeled anti-cAMP antibody in lysis buffer. […] All testing wells contained 0.1% DMSO in the final concentrations.
Data in graphs are represented in Mean±SD. Dose-dependent responses were fitted with sigmoidal dose-response curves allowing variable slopes using GraphPad Prism version 6 (Graphpad Prism).
These studies used cell lines overexpressing either human IP, EP2 or DP1, or EP1 receptors, and following incubation with varying concentrations of compounds, cAMP levels were measured using Fluorescence Resonance Energy Transfer (FRET).

[4] = Stability in liver microsomes, dog
[5] = Stability in human subcutaneous skin homogenate

prostaglandin I2 (PGI2) receptor (IP), sequence (P43119 whole entry): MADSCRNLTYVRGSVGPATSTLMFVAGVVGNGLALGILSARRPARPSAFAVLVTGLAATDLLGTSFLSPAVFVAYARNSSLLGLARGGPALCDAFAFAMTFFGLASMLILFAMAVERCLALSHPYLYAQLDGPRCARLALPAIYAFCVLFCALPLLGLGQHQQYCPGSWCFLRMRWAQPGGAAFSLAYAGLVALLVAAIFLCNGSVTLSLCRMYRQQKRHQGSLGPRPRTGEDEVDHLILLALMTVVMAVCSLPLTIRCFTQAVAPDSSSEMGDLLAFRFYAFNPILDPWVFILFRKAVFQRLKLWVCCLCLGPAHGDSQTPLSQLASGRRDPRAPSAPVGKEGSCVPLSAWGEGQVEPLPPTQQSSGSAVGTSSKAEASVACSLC

treprostinil diacetate [Prodrug LXXII]
Trep Concentration (μM) 0 min [1]: 0 µM
Trep Concentration (μM) 15 min [1]: 0.24 µM
Trep Concentration (μM) 30 min [1]: 0.301 µM
Trep Concentration (μM) 60 min [1]: 0.298 µM
Trep Concentration (μM) 120 min [1]: 0.274 µM
Treprostinil Concentration 0 min [1]: 0 µM
Treprostinil Concentration 120 min [1]: 0.274 µM
CLint, calculated (in parentheses) ([1]; hepatocytes): 0.0697 mL/min/mg protein
Half-life, calculated (in parentheses) ([1]; hepatocytes): 6.63 min
AUC ([1]; rat): 32 µmol·min/L
Mono AUC (treprostinil formed) ([1]; rat): 32.0 µmol·min/L
CLint ([1]; rat, hepatocytes): > 0.0308 mL/min/mg protein
Half-life ([1]; rat, hepatocytes): < 15 min
Trep Concentration (μM) 0 min [2]: 0.0636 µM
Trep Concentration (μM) 30 min [2]: 0.541 µM
Trep Concentration (μM) 60 min [2]: 0.465 µM
Trep Concentration (μM) 120 min [2]: 0.401 µM
Treprostinil Concentration 15 min [2]: 0.671 µM
Treprostinil Concentration 120 min [2]: 0.401 µM
AUC ([2]; dog): 55.67 µmol·min/L
Mono AUC (treprostinil formed) ([2]; dog): 55.7 µmol·min/L
CLint ([2]; dog, hepatocytes): >0.0308 mL/min/mg protein
Half-life ([2]; dog, hepatocytes): <15 min
Activity at the IP receptor compared to treprostinil [3]: inactive
Trep Concentration 0 min [4]: 1.07 µM
Trep Concentration 10 min [4]: 1.07 µM
Trep Concentration 20 min [4]: 1.04 µM
Trep Concentration 30 min [4]: 1.05 µM
Trep Concentration 60 min [4]: 0.897 µM
Treprostinil Concentration 0 min [4]: 1.07 µM
Treprostinil Concentration 15 min [4]: 1.07 µM
Treprostinil Concentration 30 min [4]: 1.04 µM
Treprostinil Concentration 60 min [4]: 1.05 µM
Treprostinil Concentration 120 min [4]: 0.897 µM
AUC Mono (treprostinil formed) ([4]; dog): 60.9 µmol·min/L
CLint ([4]; dog, microsomes): >0.139 mL/min/mg protein
Half-life ([4]; dog, microsomes): <10 min
Trep Concentration 0 min [5]: 0 µM
Trep Concentration 30 min [5]: 0.02 µM
Trep Concentration 60 min [5]: 0.0556 µM
Trep Concentration 120 min [5]: 0.147 µM
Treprostinil Concentration 0 min [5]: 0 µM
Treprostinil Concentration 30 min [5]: 0.02 µM
AUC ([5]; human): 7.512 µmol·min/L
Mono AUC (treprostinil formed) ([5]; human): 7.512 µmol·min/L
